Values of other authors as cited in publication PMC11915028 (ACS Pharmacology & Translational Science, 2025).

Molecular target: PSMA expression in PCa lesions (Homo sapiens, UniProt Q04609)
Excerpt: High tumor-to-background ratios are required for the detection of small cancer/metastatic lesions. The required ratio is ∼10 for the detection of lesions with about 1 cm diameter, but for the detection of smaller lesions (0.3 cm), the required ratio should be almost 90.[30]

Sequence of PSMA expression in PCa lesions (Q04609 whole entry): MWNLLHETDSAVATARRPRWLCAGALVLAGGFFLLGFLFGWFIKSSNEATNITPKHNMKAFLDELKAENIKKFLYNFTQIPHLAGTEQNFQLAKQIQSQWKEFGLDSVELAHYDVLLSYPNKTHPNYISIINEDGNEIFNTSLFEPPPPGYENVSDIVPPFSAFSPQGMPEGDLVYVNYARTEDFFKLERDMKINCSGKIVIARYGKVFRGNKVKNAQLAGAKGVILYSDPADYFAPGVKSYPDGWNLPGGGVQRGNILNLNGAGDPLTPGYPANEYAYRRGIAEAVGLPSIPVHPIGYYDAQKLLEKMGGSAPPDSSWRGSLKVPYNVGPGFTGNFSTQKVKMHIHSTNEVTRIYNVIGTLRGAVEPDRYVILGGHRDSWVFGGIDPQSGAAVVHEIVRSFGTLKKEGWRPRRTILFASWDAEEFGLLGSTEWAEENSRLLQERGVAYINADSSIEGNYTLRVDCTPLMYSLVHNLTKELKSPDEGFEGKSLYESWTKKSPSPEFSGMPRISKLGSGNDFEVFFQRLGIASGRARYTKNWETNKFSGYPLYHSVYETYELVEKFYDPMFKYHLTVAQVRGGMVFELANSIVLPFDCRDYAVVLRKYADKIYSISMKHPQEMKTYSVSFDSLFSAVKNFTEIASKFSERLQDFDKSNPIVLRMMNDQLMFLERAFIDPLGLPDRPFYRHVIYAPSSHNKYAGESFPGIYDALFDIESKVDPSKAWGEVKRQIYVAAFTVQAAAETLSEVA

**Q.** Which results are given for `O=C([O-])CN(CCN(CC(=O)[O-])Cc1cc(CCC(=O)NCCCCCC(=O)NCCCC[C@H](NC(=O)N[C@@H](CCC(=O)O)C(=O)O)C(=O)O)ccc1[O-])Cc1cc(CCC(=O)O)ccc1[O-].[68Ga+3].[OH3+]` [[^68Ga]Ga-PSMA-11]?
**A.** SUVmax, local recurrences of PCa (PET, three hours post-administration): 3–39; SUVmax, normal prostate gland tissue (human, in vivo): 2−4
